Here are results for two molecules from article PMC10629583, “Specific inhibition of an anticancer target, polo-like kinase 1, by allosterically dismantling its mechanism of substrate recognition” (Proceedings of the National Academy of Sciences of the …, 2023).

The test system of series [1] is 45 receptors and channels. The experiment in a line: PDSP off-target screen (whole panel). Format: binding, human. The source says:
(§1) PDSP no. Compound Interactions (Ki, µM)
(§2) 60477 Allopole-A None observed.
(§3) trigger a secondary screen at that receptor.

A further series addresses H1 (Homo sapiens, UniProt P35367). The experiment in a line: PDSP off-target binding screen. The conditions noted are these: for inhibition at 10 µM: read-out: Primary screen AVE(%inhib)±SD; for Ki: read-out: Secondary screen Ki.
Source text: as §1, §2, §3

In a further series the target is T1, Alpha1A (Homo sapiens, UniProt P35348).
T1 sequence (P35348 1-466): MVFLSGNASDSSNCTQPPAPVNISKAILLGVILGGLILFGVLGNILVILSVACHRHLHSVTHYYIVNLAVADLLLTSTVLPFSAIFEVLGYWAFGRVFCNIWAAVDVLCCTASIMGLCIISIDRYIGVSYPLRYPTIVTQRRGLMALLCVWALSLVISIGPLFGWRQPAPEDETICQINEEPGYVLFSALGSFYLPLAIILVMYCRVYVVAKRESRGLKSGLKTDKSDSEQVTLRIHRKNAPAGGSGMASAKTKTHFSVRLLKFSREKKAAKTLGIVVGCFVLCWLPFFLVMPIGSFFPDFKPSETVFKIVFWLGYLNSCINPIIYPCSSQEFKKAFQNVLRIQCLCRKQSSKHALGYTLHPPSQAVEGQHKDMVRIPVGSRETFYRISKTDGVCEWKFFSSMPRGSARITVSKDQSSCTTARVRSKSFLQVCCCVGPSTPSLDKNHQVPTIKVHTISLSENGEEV
The experiment in a line: PDSP off-target binding screen. The settings on record: for inhibition at 10 µM: read-out: Primary screen AVE(%inhib)±SD; for Ki: read-out: Secondary screen Ki.
Source text: as §1, §2, §3

A further series deals with T2, Alpha1B (Homo sapiens, UniProt P35368).
T2 sequence (P35368 1-520): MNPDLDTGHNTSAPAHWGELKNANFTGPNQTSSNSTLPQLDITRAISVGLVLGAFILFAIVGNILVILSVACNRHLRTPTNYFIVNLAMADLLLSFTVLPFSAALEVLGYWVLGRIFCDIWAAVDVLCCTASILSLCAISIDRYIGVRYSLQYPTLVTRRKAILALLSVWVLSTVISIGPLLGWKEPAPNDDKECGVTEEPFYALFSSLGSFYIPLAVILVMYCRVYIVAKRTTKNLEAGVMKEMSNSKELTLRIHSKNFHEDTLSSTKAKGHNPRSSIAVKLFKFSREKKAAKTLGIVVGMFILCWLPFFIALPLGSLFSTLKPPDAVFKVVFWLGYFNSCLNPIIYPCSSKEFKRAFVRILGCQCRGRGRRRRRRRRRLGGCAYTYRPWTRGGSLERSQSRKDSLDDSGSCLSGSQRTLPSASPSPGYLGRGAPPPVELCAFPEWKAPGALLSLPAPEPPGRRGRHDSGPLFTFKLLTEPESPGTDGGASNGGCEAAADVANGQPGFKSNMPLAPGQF
The experiment in a line: PDSP off-target binding screen. The settings on record: for inhibition at 10 µM: read-out: Primary screen AVE(%inhib)±SD; for Ki: read-out: Secondary screen Ki.
Source text: as §1, §2, §3

A further series addresses T3, 5-HT1D (Homo sapiens, UniProt P28221).
T3 construct: NIMH Psychoactive Drug Screening Program (UNC)
The experiment in a line: PDSP off-target binding screen. The conditions noted are these: for inhibition at 10 µM: read-out: Primary screen AVE(%inhib)±SD; for Ki: read-out: Secondary screen Ki.
Source text: as §1, §2, §3

The next series has as its target 5-HT7A (Homo sapiens, UniProt P34969). The experiment in a line: PDSP off-target binding screen. The conditions noted are these: for inhibition at 10 µM: read-out: Primary screen AVE(%inhib)±SD; for Ki: read-out: Secondary screen Ki.
Source text: as §1, §2, §3

The target of a further series is T4, Alpha2B (Homo sapiens, UniProt P18089).
T4 sequence (P18089 1-450): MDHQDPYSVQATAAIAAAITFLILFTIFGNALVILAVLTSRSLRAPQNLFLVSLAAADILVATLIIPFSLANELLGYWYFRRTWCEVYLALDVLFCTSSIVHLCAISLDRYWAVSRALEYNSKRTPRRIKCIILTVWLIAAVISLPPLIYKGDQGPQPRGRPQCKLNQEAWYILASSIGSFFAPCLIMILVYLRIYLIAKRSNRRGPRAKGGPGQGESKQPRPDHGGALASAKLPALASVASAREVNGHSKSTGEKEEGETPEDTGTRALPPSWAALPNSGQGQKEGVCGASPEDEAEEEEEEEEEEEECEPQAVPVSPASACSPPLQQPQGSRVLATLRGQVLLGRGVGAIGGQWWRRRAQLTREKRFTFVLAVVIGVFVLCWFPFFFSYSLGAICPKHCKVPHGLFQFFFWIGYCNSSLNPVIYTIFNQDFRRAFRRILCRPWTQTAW
The experiment in a line: PDSP off-target binding screen. The settings on record: for inhibition at 10 µM: read-out: Primary screen AVE(%inhib)±SD; for Ki: read-out: Secondary screen Ki.
Source text: as §1, §2, §3

The target in the next series is T5, Alpha1D (Homo sapiens, UniProt P25100).
T5 sequence (P25100 1-572): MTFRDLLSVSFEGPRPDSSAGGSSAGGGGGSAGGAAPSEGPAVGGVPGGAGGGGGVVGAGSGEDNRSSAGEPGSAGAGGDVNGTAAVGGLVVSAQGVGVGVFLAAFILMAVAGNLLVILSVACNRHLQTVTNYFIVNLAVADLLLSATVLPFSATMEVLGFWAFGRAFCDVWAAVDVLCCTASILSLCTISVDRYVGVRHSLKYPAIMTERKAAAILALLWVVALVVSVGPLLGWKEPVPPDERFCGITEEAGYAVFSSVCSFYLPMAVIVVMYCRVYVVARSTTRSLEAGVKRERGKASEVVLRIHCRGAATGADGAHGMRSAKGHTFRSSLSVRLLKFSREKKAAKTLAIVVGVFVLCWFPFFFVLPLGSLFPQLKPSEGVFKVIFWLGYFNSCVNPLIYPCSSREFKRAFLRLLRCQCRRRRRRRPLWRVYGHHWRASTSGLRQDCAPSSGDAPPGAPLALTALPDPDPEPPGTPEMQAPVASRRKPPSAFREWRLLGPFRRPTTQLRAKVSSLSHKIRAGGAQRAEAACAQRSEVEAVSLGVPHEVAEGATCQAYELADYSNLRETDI
The experiment in a line: PDSP off-target binding screen. The settings on record: for inhibition at 10 µM: read-out: Primary screen AVE(%inhib)±SD; for Ki: read-out: Secondary screen Ki.
Source text: as §1, §2, §3

The subject of another series is HeLa cells. The experiment in a line: Time-lapse analysis of double thymidine-released HeLa cells. Format: cell-based. The settings on record: HeLa released from double-thymidine block, 10 μM added 7 h after release. How it is done:
To carry out time-lapse analysis, HeLa cells were arrested at the G1/S boundary by treating them with 2.5 mM of thymidine for 18 h, releasing them for 9 h, and then treating them again with the same dose of thymidine for another 18 h. The resulting cells were washed with fresh medium, released from the double-thymidine block for 7 h, and then treated with control DMSO or 10 μM of Allopole to examine their effect on cell cycle progression. At the indicated time points, cells were imaged every 30 min using a Keyence BZ-X710 all-in-one microscope.

“Also recorded” adds a separate entry of the source.

T3 sequence (P28221 whole entry): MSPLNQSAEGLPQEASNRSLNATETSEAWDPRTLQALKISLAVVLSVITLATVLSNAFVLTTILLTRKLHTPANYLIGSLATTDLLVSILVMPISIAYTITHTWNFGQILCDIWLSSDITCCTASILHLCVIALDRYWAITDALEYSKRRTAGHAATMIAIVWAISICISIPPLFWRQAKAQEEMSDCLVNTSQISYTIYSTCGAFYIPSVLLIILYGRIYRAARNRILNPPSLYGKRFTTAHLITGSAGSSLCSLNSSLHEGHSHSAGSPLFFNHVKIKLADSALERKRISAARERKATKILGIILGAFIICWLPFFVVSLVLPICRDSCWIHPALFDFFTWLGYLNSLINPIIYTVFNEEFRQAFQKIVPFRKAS
5-HT7A, sequence (P34969 1-445 isoform P34969-2): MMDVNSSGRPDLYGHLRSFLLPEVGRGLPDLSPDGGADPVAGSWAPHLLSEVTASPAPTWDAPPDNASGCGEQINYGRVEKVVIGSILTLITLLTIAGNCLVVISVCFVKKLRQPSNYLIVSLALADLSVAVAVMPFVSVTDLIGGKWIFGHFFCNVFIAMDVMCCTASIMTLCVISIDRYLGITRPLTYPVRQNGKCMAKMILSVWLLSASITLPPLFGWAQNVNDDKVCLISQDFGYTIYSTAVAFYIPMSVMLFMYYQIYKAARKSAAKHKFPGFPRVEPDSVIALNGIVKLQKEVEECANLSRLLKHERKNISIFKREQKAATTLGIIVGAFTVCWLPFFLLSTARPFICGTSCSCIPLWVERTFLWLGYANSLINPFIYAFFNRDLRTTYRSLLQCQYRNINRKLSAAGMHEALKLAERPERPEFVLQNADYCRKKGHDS
H1, sequence (P35367 whole entry): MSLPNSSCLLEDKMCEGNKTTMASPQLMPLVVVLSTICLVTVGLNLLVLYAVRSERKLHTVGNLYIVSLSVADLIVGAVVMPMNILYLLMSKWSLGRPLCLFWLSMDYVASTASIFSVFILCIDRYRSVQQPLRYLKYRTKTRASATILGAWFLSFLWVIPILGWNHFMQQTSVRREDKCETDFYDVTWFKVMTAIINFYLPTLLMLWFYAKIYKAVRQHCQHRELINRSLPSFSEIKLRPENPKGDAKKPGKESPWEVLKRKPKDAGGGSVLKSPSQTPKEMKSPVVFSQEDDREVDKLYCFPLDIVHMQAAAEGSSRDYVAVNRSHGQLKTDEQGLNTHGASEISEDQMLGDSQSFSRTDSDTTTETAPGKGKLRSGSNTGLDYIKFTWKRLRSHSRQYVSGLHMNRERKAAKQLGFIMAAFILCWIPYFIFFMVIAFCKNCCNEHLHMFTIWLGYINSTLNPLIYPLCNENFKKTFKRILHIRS

Broadly, the Ki is a measure of affinity in units of concentration, obtained from inhibition or displacement. Turning to `O=c1c2sc(Cl)cc2n2c(=S)[nH]nc2n1CC1CC1` [Allopole-A], the “Interactions (Ki, µM), summary of PDSP screen (in words)” value in [1] is given as “None observed; also recorded: no interactions”. For the same molecule, the inhibition at 10 µM on H1 was 11.5 ± 2.8%; on Alpha1A, -9.4 ± 18%; on Alpha1B, -7.7 ± 9.7%; at 5-HT1D it was 22.5 ± 25.6%; on 5-HT7A, -88.1 ± 20.8%; on Alpha2B, -6.4 ± 7.1%. In addition, the inhibition at 10 µM on Alpha1D is -9.9 ± 23.4%. The Ki at H1, on Alpha1A, at Alpha1B, on 5-HT1D, on 5-HT7A and at Alpha2B was more than 10 µM in each case. Also, on Alpha1D, the Ki was more than 10 µM.

As to `Cn1cnc([N+](=O)[O-])c1Sc1nnc2n(CC3CC3)c(=O)c3sc(Cl)cc3n12` [Allopole], the “Interactions (Ki, µM), summary of PDSP screen (in words)” value in [1] is recorded as “only two weak µM interactions”. Also, the inhibition at 10 µM at H1 was 35.8 ± 11.9%; on Alpha1A, 40.6 ± 10.5%; on Alpha1B, -1.6 ± 9.5%; on 5-HT1D it was 32.8 ± 27.1%; at 5-HT7A, 14.9 ± 9.9%; on Alpha2B it was 8.3 ± 16.4%. The inhibition at 10 µM on Alpha1D was -15.1 ± 19.8%. The Ki on H1, on Alpha1A, at Alpha1B, on 5-HT1D, at 5-HT7A and at Alpha2B was more than 10 µM throughout. Moreover, on Alpha1D, the Ki is more than 10 µM. Further, in the series with HeLa cells, the “Mitotic progression (in words)” value was “effectively blocked mitotic progression for several hours and induced cell death”.
